Measured values as given in patent US20250101025A1, “NOVEL PLK1 DEGRADATION INDUCING COMPOUND” (UPPTHERA, INC., priority 2021, published 2025).

Legend:
Type in all cases: cell-based
PLK1 = biological target: T1, PLK1 (Homo sapiens, UniProt P53350); assay: Luciferase assay for PLK1 in HeLa LgBit (Plk1-HiBit KI) cell line; conditions: compound 300 nM, luminescence after 9 hours
T1 construct: endogenous in cells; host or cells: HeLa LgBit (Plk1-HiBit KI): HeLa stably expressing LgBit, with HiBit knocked in at the endogenous Plk1 locus by CRISPR/Cas9
Method in brief: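 HeLa cells stably expressing LgBit, with HiBit knocked in at the endogenous Plk1 C-terminus, synchronized by 2 mM thymidine block for 24 h, then released and cultured 18 h. Compound added at 300 nM with Endurazine substrate; luminescence tracked in real time and expressed as ratio to DMSO.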

MRC-5 cell line = assay: Cell viability assay for MRC-5 cell line (EZ-Cytox cytotoxicity experiment); conditions: Homo sapiens, MRC5, 120 h; MRC-5 normal cell line, 3-fold dilutions 10000 nM to 1.52 nM, 5 days; Exemplary Compounds, numeric values; read-out: Activity: IC50 value (nM) to MRC-5 cell line
Protocol: 4. Cell Viability Assay for MRC-5 Cell Line
(1) Culture of MRC-5 Cell Line
Passage of cultured cells was maintained within P15.
(2) Treatment of Compounds of the Present Invention
Then, it was cultured in 37° C.
(3) Cytotoxicity Experiment
CO2 incubator for 4 hours.

H526 cell line = assay: Cell viability assay for NCI-H526 cell line (EZ-Cytox); conditions: Homo sapiens, NCI-H526, 120 h; H526 cells, 3-fold dilutions 3000 nM to 0.46 nM, 5 days
Method in brief: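 NCI-H526 cells were exposed to compound in CO2 incubator culture for 5 days. Viability was read by EZ-Cytox absorbance at 450 nm after 3 min shaking, giving IC50 values.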

T1 sequence (P53350 whole entry): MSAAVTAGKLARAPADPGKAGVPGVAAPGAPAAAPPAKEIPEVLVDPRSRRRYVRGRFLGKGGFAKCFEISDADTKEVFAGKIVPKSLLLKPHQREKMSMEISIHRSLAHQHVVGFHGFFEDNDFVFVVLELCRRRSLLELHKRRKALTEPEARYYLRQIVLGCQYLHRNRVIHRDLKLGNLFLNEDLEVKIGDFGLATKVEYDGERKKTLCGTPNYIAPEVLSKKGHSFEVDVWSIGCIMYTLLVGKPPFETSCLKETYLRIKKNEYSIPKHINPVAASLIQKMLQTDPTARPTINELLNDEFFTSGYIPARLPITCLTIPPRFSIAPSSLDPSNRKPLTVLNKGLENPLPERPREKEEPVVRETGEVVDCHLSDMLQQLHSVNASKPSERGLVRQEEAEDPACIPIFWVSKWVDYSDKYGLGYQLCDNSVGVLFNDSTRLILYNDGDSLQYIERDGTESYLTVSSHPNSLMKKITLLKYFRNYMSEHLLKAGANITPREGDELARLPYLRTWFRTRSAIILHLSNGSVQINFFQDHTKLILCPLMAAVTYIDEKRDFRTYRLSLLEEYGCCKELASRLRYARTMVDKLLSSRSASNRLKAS

Activity: ratio of the luminescence value of each Exemplary Compound treatment group to DMSO treatment group (PLK1) | Compound | IC50 (MRC-5 cell line) [nM] | IC50 (H526 cell line) [µM]
++ (++<0.6) | COc1cc(C(=O)NC2CC3(CCN(CC4CCN(c5c(F)cc(N(C)C6CCC(=O)NC6=O)cc5F)CC4)CC3)C2)ccc1Nc1ncc2c(n1)N(C(C)C)CC(F)(F)C(=O)N2C (stereo not drawn) [Compound 29, 4-((7,7-difluoro-9-isopropyl-5-methyl-6-oxo-6,7,8,9-tetrahydro-5H-pyrimido[4,5-b][1,4]diazepin-2-yl)amino)-N-(7-((1-(4-((2,6-dioxopiperidin-3-yl)(methyl)amino)-2,6-difluorophenyl)piperidin-4-yl)methyl)-7-azaspiro[3.5]nonan-2-yl)-3-methoxybenzamide] | 18500 | < 0.05
+++ (+++: <0.3) | COc1cc(C(=O)NC2CC3(CCN(CC4CCN(c5ccc(N(C)C6CCC(=O)NC6=O)cc5F)CC4)CC3)C2)ccc1Nc1ncc2c(n1)N(C(C)C)CC(F)(F)C(=O)N2C (stereo not drawn) [Compound 26, 4-((7,7-difluoro-9-isopropyl-5-methyl-6-oxo-6,7,8,9-tetrahydro-5H-pyrimido[4,5-b][1,4]diazepin-2-yl)amino)-N-(7-((1-(4-((2,6-dioxopiperidin-3-yl)(methyl)amino)-2-fluorophenyl)piperidin-4-yl)methyl)-7-azaspiro[3.5]nonan-2-yl)-3-methoxybenzamide] | 6550 | < 0.05
